“Also recorded” adds a separate entry of the source.
Columns and labels:
[1] = tested on: T1D iPS cells differentiating into DE cells; assay: Definitive endoderm marker flow cytometry after demethylation (CXCR4, Sox17, PDGFR-α); assay type: cell-based, human
Description: FIG. 15. Demethylation on DO of differentiation arrests cells in a CXCR4+ PDGFRα+ Sox17− mesendodermal state. In order to identify the optimal time point at which demethylation should be initiated, two parallel differentiations of T1D iPS cells into DE cells were established. In one differentiation, the culture was exposed to 5-aza-DC on day 0 (which is the day that DE differentiation is initiated), whereas the other culture was demethylated at day 4 of differentiation (which is the last day of DE culture). At the end of the differentiations, the efficacy of DE cell differentiation was determined by studying the expression of CXCR4, PDGFR-α, and Sox17. Undifferentiated iPS cells (red plot) served as a negative control for all of these cell markers. […] In contrast, demethylation of the cells on day 4 (blue plot) generated >90% CXCR4+ Sox17+ PDGFR-α− cells, representing true DE cells. […] Besides, after formation of the DE, the cells have a higher proliferative rate. Thus, temporal control of the demethylation treatment ensures enhanced differentiation outcomes.
(§1) After completing 4 days of differentiation in DE differentiation media, the cells were treated with fresh media supplemented with 5-aza-DC. The 5-aza-DC was treated for 18 hours, which spanned the last day of DE differentiation, before being washed with warm DMEM F/12 three times and harvested as described in the next section for initiating 3D differentiation into pancreatic precursor cells.
For assessment of DE differentiation efficiency, cells from D5 of differentiation (end of stage 1) were incubated at room temperature for 2-5 minutes with TrypLE Express (Invitrogen, Grand Island, N.Y.), dissociated into a single cell suspension, filtered through a 70 μm mesh and washed with 1×PBS (Invitrogen, Grand Island, N.Y.) before being distributed into FACS tubes. […]

ND iPS cells [2] = assay: Insulin flow cytometry at end of Stage 5, ND cultures; assay type: cell-based, human
Protocol: (§2) FIGS. 18A-18B. […] To address whether demethylation enhances the yield of Pdx1+ cells and insulin+ cells from ND iPS cells, in parallel, differentiations of ND iPS cells, treated with or without 10 nM 5-aza-DC for 18 h on day 4 of differentiation (n=2) were established. Controls for staining were iPS cells (negative) and βTC3 mouse insulinoma cells (positive). […] Thus, demethylation enhances the differentiation into IPCs of specifically T1D iPS cells but not ND iPS cells. This is likely because there are specific gene loci on T1D cells that are aberrantly methylated, which is corrected by transient 5-aza-DC treatment.
(§3) For assessment of expression of pancreatic hormones insulin and glucagon, matrigel-seeded differentiating cell clusters on differentiation D27 (end of stage 5) were recovered by treatment with Dispase (Catalog Number: 354235, BD Biosciences, San Jose, Calif.) for 5 minutes at 37° C., followed by gentle suspension to further break down the matrigel. After washing with 1×PBS and centrifugation, the cell clusters were incubated with TrypLE Express for 5-10 minutes at room temperature. Following gentle resuspension and centrifugation, the cells were permeabilized via saponin using the BD Cytofix/Cytoperm Kit (Catalog Number: 554714, BD Biosciences, San Jose, Calif.). […]

[3] = tested on: 5-methylcytosine content of gDNA of T1D iPS cells; assay: Dot blot for 5-methylcytosine on gDNA; assay type: cell-based, human
Protocol: FIGS. 14A-14B. Selection of the optimal dose of 5-aza-DC to demethylate iPS cells while ensuring maximal cell viability. FIG. 14A) Every cell type has a unique tolerance to 5-aza-DC, which is toxic at high doses. In order to identify an optimal dose of 5-aza-DC that would maintain integrity of the cells while demethylating effectively, a dose screen experiment was conducted on T1D iPS cells (n=2), observing the quality of the colonies and degree of cell death over 4 days after 18 hours of treatment with various doses of 5-aza-DC. […] FIG. 14B) To confirm that those low doses would still demethylate cells, a dot blot for 5-methylcytosine was performed on gDNA isolated from untreated T1D iPS cells or iPS cells that were treated with 1 nM or 10 nM 5-aza-DC (n=3).
To detect the effectiveness of demethylation treatment, dot blots were performed on genomic DNA (gDNA) samples isolated from demethylated and nondemethylated control iPS cells to determine levels of 5-methylcytosine (5-MC). gDNA was isolated using the DNeasy Blood & Tissue Kit (Qiagen, Valencia, Calif.). […] Finally, HRP signal was detected with a 5 minute incubation at room temperature in Amersham ECL Prime solution (Catalog Number: RPN2232, GE Healthcare, Pittsburgh, Pa.) and processed via X-ray films.

[4] = tested on: T1D iPS cell-derived cell clusters; assay: Cluster morphology and dithizone staining of T1D IPC cultures; assay type: cell-based, human
Protocol: Freshly prepared dithizone solution was used for all experiments. First, 20 mg of dithizone (Catalog Number: D5130, Sigma-Aldrich, St. Louis, Mo.) was added to 0.6 mL of 95% ethanol in a 15 mL conical tube. Subsequently, 1-5 drops of ammonium hydroxide was added and the resulting orange stock mixture was vortexed thoroughly until completely dissolved. 0.3 mL of this stock solution was dispensed in 99.7 mL of 1×PBS and the pH was adjusted to 7.4 with 1N HCl. Islets (supplied by the IIDP) or picked IPC clusters were added to separate wells each containing 200 μL of the final dithizone solution in a 96 well plate. The cell clusters were incubated for 2-5 minutes before images were captured using a standard light microscope (Nikon Eclipse, TS100) attached to a color camera.
A full differentiation of T1D iPS cells into IPCs was initiated, demethylating the DE cells on day 4 for 18 hours before transferring them onto matrigel. A striking impact of the demethylation treatment in the T1D cultures was observed. Typically, T1D iPS cells gave rise to a disorganized mix of cysts and spheroids, with a dominant presence of hollow cysts. […] Next, these cell clusters were stained with dithizone, which when positive points to the presence of insulin Shiroi et al., 2002).

ND iPS cells [5] = assay: Pdx1 flow cytometry, ND cultures; assay type: cell-based, human; settings: 10 nM for 18 h on day 4
Protocol: as §2
as §3, with “transcription factors (Pdx1, Nkx6.1” for “hormones insulin”, “NeuroD1),” for “glucagon,”, “D15” for “D27”, “4)” for “5)”, “permeabilized” for “permeabilized via saponin”, “methanol as described below.” for “the BD Cytofix/Cytoperm Kit (Catalog Number: 554714, BD Biosciences, San Jose, Calif.).”

[6] = tested on: T1D DE cells (T1D iPS cell-derived); assay: Pdx1 flow cytometry at end of Stage 4, T1D cultures; assay type: cell-based, human; settings: T1D DE cells demethylated on day 4 for 18 h
Protocol: as §1
For assessment of expression of pancreatic transcription factors (Pdx1, Nkx6.1 and NeuroD1), matrigel-seeded differentiating cell clusters on differentiation D15 (end of stage 4) were recovered by treatment with Dispase (Catalog Number: 354235, BD Biosciences, San Jose, Calif.) for 5 minutes at 37° C., followed by gentle suspension to further break down the matrigel. After washing with 1×PBS and centrifugation, the cell clusters were incubated with TrypLE Express for 5-10 minutes at room temperature. Following gentle resuspension and centrifugation, the cells were permeabilized using methanol as described below. The cells were fixed in 2% paraformaldehyde in PBS for 10 minutes at 37° C., followed by centrifugation, and resuspension of the vortexed cells in 1 mL of chilled Perm Buffer III (Catalog Number: 558050, BD Biosciences, San Jose, Calif.). The cells were incubated for 30 minutes on ice in sealed tubes. […]

[7] = tested on: T1D DE cells (T1D iPS cell-derived); assay: Insulin and glucagon flow cytometry at end of Stage 5, T1D cultures; assay type: cell-based, human; settings: for number of glucagon-expressing cells: T1D cultures, concentration-dependent
Protocol: as §1
For assessment of expression of pancreatic hormones insulin and glucagon, matrigel-seeded differentiating cell clusters on differentiation D27 (end of stage 5) were recovered by treatment with Dispase (Catalog Number: 354235, BD Biosciences, San Jose, Calif.) for 5 minutes at 37° C., followed by gentle suspension to further break down the matrigel. After washing with 1×PBS and centrifugation, the cell clusters were incubated with TrypLE Express for 5-10 minutes at room temperature. Following gentle resuspension and centrifugation, the cells were permeabilized via saponin using the BD Cytofix/Cytoperm Kit (Catalog Number: 554714, BD Biosciences, San Jose, Calif.). For insulin staining, the cells were incubated with anti-inulin-PE for 30 minutes in the dark at room temperature before being washed and resuspended in 1×PBS for flow cytometric analysis. For glucagon staining, the cells were incubated with purified rabbit anti-human glucagon for 30 minutes in the dark at room temperature before being washed and incubated with anti-rabbit APC (1:100) for an additional 30 minutes in the dark at room temperature. Subsequently, the cells were washed and resuspended in 1×PBS for flow cytometric analysis.

[8] = tested on: Human iPS cell-derived IPCs; assay: Mitochondria stress test (oxygen consumption rate); assay type: cell-based; settings: low glucose (2.8 mM)
Protocol: Oxygen consumption rate (OCR) was measured by using an intact-cell respirometer designed for adherent cells (Seahorse Bioscience, North Billerica, Mass.). Human iPS cell-derived IPCs were grown in special 24-well plates designed for respirometer analyses. OCR was determined in assay medium consisting of medium M199 lacking sodium bicarbonate for 60 minutes. Before analysis, IPCs within individual wells were exposed to either, low glucose (2.8 mM), high glucose (20 mM), high glucose (20 mM)+Nifedipine. […] The FCCP concentration used in these studies was determined by titration with differing amounts of the uncoupler by using the least amount required for maximal uncoupling in cells unexposed to MTQAs. OCR (pmol per minute per microgram of DNA) was determined as the average number recorded during time periods defined as intervals between the above sequential injections. Basal OCR was determined as respiration before injection of any compounds minus non-mitochondrial OCR. OCRATP was determined as basal OCR minus OCR after oligomycin injection. OCR accountable by the proton leak was calculated as OCR in the presence of oligomycin minus non-mitochondrial OCR. Maximal uncoupled respiration was calculated as OCR after FCCP minus non-mitochondrial OCR. […] ECAR was quantified simply as the recorded acidification rate during the respiratory conditions delineated above.

[9] = demethylation on day 4 of differentiation

Compound | marker phenotype of resulting cells ([1]; demethylation on day 0 of differentiation) | CXCR4+ Sox17+ PDGFR-α− cells [1, 9] [%] | marker phenotype of resulting cells [1, 9] | yield of insulin-expressing cells, treated versus untreated (ND iPS cells [2]; 10 nM for 18 h on day 4) | yield of Insulin+ cells at the end of Stage 5 (ND iPS cells [2]; unchanged after treatment) [%] | demethylation (5-methylcytosine dot blot) ([3]; 1 nM) | demethylation (5-methylcytosine dot blot) ([3]; 10 nM) | cluster morphology ([4]; T1D DE cells treated on day 4, both doses (1 nM, 10 nM)) | dithizone staining of clusters ([4]; T1D cultures treated with 5-aza-DC) | yield of Pdx1+ cells, treated versus untreated (ND iPS cells [5]) | Pdx1+ cells at the end of Stage 4 [6] [%] | insulin-expressing cells ([7]; T1D cultures treated with 5-Aza-DC, n=5) | number of glucagon-expressing cells [7] | number of glucagon-expressing cells ([7]; listed as 5-Aza-DC) | insulin+ cells, highest measured in some cultures ([7]; T1D, 10 nM, repeated experiments) [%] | cells expressing insulin ([7]; T1D, dose of 10 nM) [%] | augmentation of yield of IPCs versus untreated ([7]; T1D-1 DE cells, pooled experiments, untreated n=3, demethylated n=5) [fold] | effect on oxygen consumption [8]
Nc1ncn([C@H]2C[C@H](O)[C@@H](CO)O2)c(=O)n1 [5-aza-DC, 5-aza-2′-deoxycytidine] | arrested in the immature CXCR4^+ PDGFRα^+ Sox17^− mesendodermal state; also recorded: CXCR4+ PDGFR-α+ Sox17− | > 90 | pure population of CXCR4^+ Sox17^+ PDGFRα^− DE cells | equivalent yield | 25 | effectively demethylate | effectively demethylate | promoted the formation of compact cell clusters that uniquely resembled human islets; also recorded: promotes the formation of compact clusters | strong red color | not significantly different | > 95 | 56.7-59.4% | nearly all the glucagon secreting cells are gone | drastic decline | ≤ 65 | 56 | ~4 | 
CC(C)Cn1c(=O)n(C)c(=O)c2[nH]cnc21 [IBMX, 3-isobutyl-1-methylxanthine] |  |  |  |  |  |  |  |  |  |  |  |  |  |  |  |  |  | could not be increased; also recorded: could not be elevated
